Our source for the inhibition values is ChEMBL document CHEMBL1123354, “Antitumor agents. 78. Inhibition of human DNA topoisomerase II by podophyllotoxin and alpha-peltatin analogues” (J Med Chem, 1986).

Test [1] has as its target T1, DNA topoisomerase II (Homo sapiens) (UniProt P11388+Q02880). Put plainly: (§1) Compound was tested for percentage inhibition against DNA topoisomerase II. To be noted: concentration not given here. The test is classed as protein assay.
Test [2] deals with T1, DNA topoisomerase II (Homo sapiens). Described as §1. It counts as protein assay. More on the design: concentration or dose not given beside the values. To be noted: concentration not given here.

In general, inhibition refers to how much of the control response was suppressed.

Molecules are shown by their SMILES.

The compound `COc1cc([C@@H]2c3cc(OC(C)=O)c(OC(C)=O)c(OC(C)=O)c3CC3COC(=O)[C@@H]32)cc(OC)c1OC(C)=O` (some centres undefined) displayed an inhibition in test [1] of 25%. Regarding `CCO[C@@H]1c2cc3c(cc2[C@@H](c2cc(OC)c(O)c(OC)c2)[C@H]2C(=O)OCC12)OCO3` (some centres undefined), the inhibition in test [2] came out at 89%.

`COc1cc([C@@H]2c3cc4c(c(O)c3C[C@H]3COC(=O)[C@@H]32)OCO4)cc(OC)c1O` showed an inhibition in test [2] of 20%. Same read-out and setting: then `COc1cc([C@@H]2c3cc4c(cc3[C@@H](O[C@@H]3O[C@@H]5CO[C@@H](C)O[C@H]5[C@H](O)[C@H]3O)[C@H]3COC(=O)[C@H]23)OCO4)cc(OC)c1O`, with 85%; and `COc1cc([C@@H]2c3cc4c(cc3[C@H](O)[C@H]3COC(=O)[C@H]23)OCO4)cc(OC)c1OC`, with 30%.

`COc1cc([C@@H]2c3cc4c(cc3[C@@H](O)C3COC(=O)[C@@H]32)OCO4)cc(O)c1O` (some centres undefined): in test [1], the inhibition was 75%. As for `COc1cc([C@@H]2c3cc4c(cc3[C@@H](O)[C@H]3COC(=O)[C@H]23)OCO4)cc(OC)c1O`, the inhibition in test [2] was 60%. `COc1cc([C@@H]2c3cc4c(c(OC(C)=O)c3CC3COC(=O)[C@@H]32)OCO4)cc(OC)c1OC(C)=O` (some centres undefined) showed an inhibition in test [1] of 10%.

Turning to `COc1cc([C@@H]2c3cc(O)c(O)c(O)c3CC3COC(=O)[C@@H]32)cc(OC)c1O` (some centres undefined), the inhibition in test [1] was 45%.
